pIC50: −log10 of the molar value. Where two headings read alike, the source gives them in different places.
Assays:
[1] = test system: Eμ-Myc cells; assay: LC-MS analysis of GSH/GSSG, NADP+/NADPH and NAD+/NADH ratios; assay type: cell-based, mouse; settings: 2 hours
Procedure: Aqueous supernatants were dried by vacuum centrifugation with sample temperature maintained at −4° C. (Labconco, Kansas City Mo., USA). Pellets were subsequently resuspended in 25 μL of H2O as the injection buffer. Chromatographic separation was performed on a Scherzo SM-C18 column 3 μm, 3.0×150 mm (Imtakt Corp, JAPAN). The chromatographic gradient started at 100% mobile phase A (0.2% formic acid in water) with a 2 min hold followed with a 6 min gradient to 80% B (0.2% formic acid in MeOH) at a flow rate of 0.4 mL/min. This was followed by a 5 min hold time at 100% mobile phase B and a subsequent re-equilibration time (6 min) before next injection. […] Analyte ionization was accomplished using ESI in positive ionization mode. […] MS data were acquired in full scan mode mass range: m/z 100-1000; scan time: 1.4 s; data collection: centroid and profile modes. […] For all LC/MS analyses, 1 μL of sample was injected. The column temperature was maintained at 10° C. Data were quantified by integrating the area under the curve of each compound using MassHunter Quant (Agilent Technologies, Santa Clara, Calif., USA). Each metabolite's accurate mass ion was extracted (EIC) using a 10 ppm window. Relative concentrations were determined from external calibration curves.

[2] = test system: Raji cells; assay: Cell viability assay in Raji lymphoma cells; assay type: cell-based, human; settings: 48 hours, FIG. 3B
Procedure: (§1) Eμ-Myc cells were cultured on a layer of irradiated Ink4a-null MEF feeder cells in DMEM and IMDM medium (50:50 mix) supplemented with 10% fetal bovine serum (FBS), 20000 U/mL penicillin, 7 mM streptomycin, 2 mM glutamine, and β-mercaptoethanol. Raji cells were cultured in RPMI medium supplemented with 10% FBS, 20000 U/mL penicillin, 7 mM streptomycin, and 2 mM glutamine. Cells were grown at 37° C. in a humidified atmosphere supplemented with 5% (v/v) CO2.
(§2) Cells were seeded at a density of 1×10^5 cells/mL in 3.5 cm dishes, and cell counts determined via trypan blue exclusion using a TC20 Automated Cell Counter (Biorad). For viability measurements, cells were stained with Fixable Viability Dye eFluor 780 (eBioscience), and analyzed using a Gallios flow cytometer (Beckman Coulter, Fullerton, Calif.) and FlowJo software (Tree Star, Ashland, Oreg.).

[3] = test system: Eμ-Myc cells; assay: Mitochondrial ROS by MitoSox staining and flow cytometry; assay type: cell-based, mouse; settings: 2 hours, 100 μM phenformin or 10 μM Compound 1, FIG. 5A
Excerpt: Statistics for all figures are as follows: *, p<0.05; **, p<0.01; ***, p<0.001.

[4] = test system: Eμ-Myc cells; assay: Seahorse XF96 respirometry (OCR and ECAR); assay type: cell-based, mouse; settings: for Oxygen consumption of +17˜92 cells / Oxygen consumption of control cells: 100 μM phenformin or 10 μM Compound 1, after roughly four hours; for Oxygen consumption rate (OCR) / Extracellular acidification rate (ECAR): acute treatment, across a range of doses; for Oxygen consumption rate (OCR): FIG. 2A, 8A; for Extracellular acidification rate (ECAR): FIG. 2B, 8B; for pIC50: after two hours treatment, read-out: Dose that produced a roughly 50% decrease in OCR from baseline
Procedure: 7.5×10^4 lymphoma cells were plated per well of an XF96 Seahorse plate in 140 μL of unbuffered DMEM containing 25 mM glucose and 2 mM glutamine, followed by centrifugation at 500×g for five minutes. Seahorse plates were pre-coated with poly-D-lysine (Sigma-Aldrich) to enhance cell adherence. XF assays consisted of sequential mix (3 min), pause (3 min), and measurement (5 min) cycles, allowing for determination of OCR and ECAR every […]. […] For media metabolite determination, cells were seeded at 1×10^5 cells/mL in 3.5 cm plates, and cultured for two days prior to harvesting medium. Culture medium was analyzed for extracellular metabolites (glucose and lactate) using a BioProfile Analyzer (NOVA Biomedical) and normalized to cell number.

[5] = test system: Eμ-Myc lymphoma cells; settings: for Protection of viability of +17˜92 cells by pyruvate supplementation, lower doses / Protection of viability of +17˜92 cells by pyruvate supplementation, higher concentrations: 1 mM pyruvate, FIG. 5D, 10C; for Protection of viability of +17˜92 cells by pyruvate supplementation, lower doses: 10 μM Compound 1 or 30 μM phenformin; for Protection of viability of +17˜92 cells by pyruvate supplementation, higher concentrations: 100 μM Compound 1 or 300 μM phenformin
Procedure: as §1, §2

[6] = test system: Eμ-Myc lymphoma cells (control or +17˜92); assay: Tumor xenograft assay, survival of nude mice injected with lymphoma cells; assay type: in vivo, CD-1 nude mice; settings: drinking water ad lib, 0.9 mg/mL phenformin or 0.8 mg/mL Compound 1, FIG. 6B
Procedure: Lymphoma cells were resuspended in HBSS at a concentration of 5×10^6 cells/mL, and 10^6 cells/200 μL were injected intravenously into CD-1 nude mice (Charles River).

[7] = test system: AMPK; assay: Immunoblot for pAMPK (T172) and total AMPK; assay type: cell-based, mouse; settings: two hours, 100 μM phenformin or 10 μM Compound 1, FIG. 3C
Excerpt: Lymphoma cell lines were subjected to SDS-PAGE and immunoblotting using CHAPS and AMPK lysis buffers. Primary antibodies against β-actin, 4EBP (total, phospho-T36/47, and phospho-S65), rS6 (total and p S235/236), Raptor (total and pS792), and AMPKα (total and phospho-T172) were obtained from Cell Signaling Technology (Danvers, Mass.). Primary antibody against LKB1 (Ley 37D/G6) was obtained from Santa Cruz Biotechnology (Dallas, Tex., USA). For qPCR quantification of mature miRNAs, Qiazol was used isolate RNA, miRNEasy Mini kit was used to purify miRNAs and total mRNA, and cDNA synthesized using the miScript II RT kit (Qiagen). Quantitative PCR was performed using the SensiFAST SYBR Hi-ROX kit (Bioline) and an AriaMX Real-Time PCR system (Agilent Technologies). miScript primer assays (Qiagen) were used to detect mature miRNAs of the miR-17˜92 cluster, with miRNA expression normalized relative to U6 RNA levels.

[8] = test system: Eμ-Myc cells; assay: GC-MS analysis of metabolite abundance and 13C-glutamine labelling; assay type: cell-based, mouse; settings: for 13C-glutamine incorporation into glutamate and α-ketoglutarate, +17˜92 versus treated control cells: 100 μM phenformin or 10 μM Compound 1, FIG. 4B; for Aspartate abundance: +17˜92 and control cells, 2 hours, 100 μM phenformin or 10 μM Compound 1, FIG. 4A
Procedure: Cellular metabolites were extracted and analyzed by GC-MS. […] Cells were washed twice with saline, then lysed in ice-cold 80% methanol and sonicated. For GC-MS analysis, D-myristic acid (750 ng/sample) was added to metabolite extracts as an internal standard prior to drying samples under a N2 stream. […] The oven program for all metabolite analyses started at 60° C. held for 1 min, then increasing at a rate of 10° C./min until 320° C. Bake-out was at 320° C. for 10 min. […] Mass isotopomer distribution for TCA cycle intermediates was determined using a custom algorithm developed at McGill University. After correction for natural ^13C abundances, a comparison was made between non-labeled (^12C) and ^13C-labeled abundances for each metabolite. Metabolite abundance was expressed relative to the internal standard (D-myristic acid) and normalized to cell number.

[9] = 100 μM phenformin or 10 μM Compound 1, FIG. 5C

| Compound | Viability of Raji cells with or without miR-17˜92 overexpression over a range of doses [2] | Mitochondrial ROS in +17˜92 cells [3] | Mitochondrial ROS levels in control cells [3] | Oxygen consumption of +17˜92 cells [4] | Oxygen consumption of control cells [4] | Oxygen consumption rate (OCR) [4] | Extracellular acidification rate (ECAR) [4] | Protection of viability of +17˜92 cells by pyruvate supplementation, lower doses ([5]; 48 hours) | Protection of viability of +17˜92 cells by pyruvate supplementation, higher concentrations ([5]; 48 hours) | Lifespan of mice bearing +17˜92 cells [6] | AMPK phosphorylation in +17˜92 cells [7] | 13C-glutamine incorporation into glutamate and α-ketoglutarate, +17˜92 versus treated control cells [8] | Aspartate abundance [8] | other results |
| --- | --- | --- | --- | --- | --- | --- | --- | --- | --- | --- | --- | --- | --- | --- |
| N=C(NC(=N)N1CCCC1)Nc1cccc(OC(F)(F)F)c1 [Compound 1, N1-pyrrolidine-N5-(3-trifluoromethoxy)phenyl biguanide] | followed a similar trend, albeit at higher doses | significantly increased mitochondrial ROS | neither phenformin nor Compound 1 treatment were sufficient to increase | never eliminated | effectively non-respiring | decreased | commensurate increases | some protective benefit | not apparent | significantly prolonged the lifespan | largely unaffected | more significant reduction | reduced aspartate abundance | GSH/GSSG ratio ([1]; 100 μM phenformin or 10 μM Compound 1, FIG. 5B): no significant changes; NADP+/NADPH ratio in +17˜92 cells [1, 9]: increase their NADP+/NADPH ratio; NADP+/NADPH ratio in control cells [1, 9]: not control cells; pIC50 [4]: 5.00; Speed of OCR reduction versus equivalent doses of phenformin ([4]; higher doses, 5 min post-injection, FIG. 2C): more rapid reductions in OCR; Extent of OCR reduction versus equivalent doses of phenformin ([4]; lower doses, longer time periods (260 min), FIG. 2D): more profound reductions in OCR; Viability of +17˜92 cells at doses not toxic in control cells ([5]; 48 hours, FIG. 3A): viability of +17˜92 cells was affected |
| [H]/N=C(/N)N/C(=N/[H])NCCc1ccccc1 [phenformin, reference compound] | followed a similar trend, albeit at higher doses | approached significance | neither phenformin nor Compound 1 treatment were sufficient to increase | never eliminated | effectively non-respiring | decreased | commensurate increases | some protective benefit | not apparent | significantly prolonged the lifespan | reduced AMPK phosphorylation than control cells | not | reduced aspartate abundance | pIC50 ([4]; Mus musculus, 2 h): 4.00; Viability of Δ/Δ (miR-17˜92 deleted) versus fl/fl cells ([5]; 48 hour treatment, FIG. 1A): more resistant; Sensitivity (viability) of +17˜92 versus control Eμ-Myc lymphoma cells ([5]; 48 hours, FIG. 1C): significantly more sensitive than controls |

Reference: patent US20190046478A1, “BIOLOGICAL MARKER FOR IDENTIFYING CANCER PATIENTS FOR TREATMENT WITH A BIGUANIDE” (THE ROYAL INSTITUTION FOR THE ADVANCEMENT OF …, priority 2017, published 2019)
